Measured values: patent US20220184222A1, “BICYCLE TOXIN CONJUGATES AND USES THEREOF” (BicycleTx Limited, priority 2019, published 2022)
Starred links: 1 amine or outer side, 2 acyl side, 3 side chain; linkers in the order of their positions; H or OH if unused. Non-standard residues stand in square brackets, D forms with d. Residues, ends and D or L forms follow the SMILES beside them. *: point of attachment. Dolaproine = CO[C@@H]([C@@H]1CCCN1)[C@@H](C)C(=O)O; Dil = CC[C@H](C)[C@H](NC)[C@@H](CC(=O)O)OC; PABC = O=C(OCc1ccc(N[*:1])cc1)[*:2]; X1 = O=C(CCCC(=O)*)ON1C(=O)CCC1=O; X2 = C[C@@H](N*)[C@@H](O)c1ccccc1; Cit = NC(=O)NCCC[C@H](N)C(=O)O; NMeV = CN[C@H](C(=O)O)C(C)C

Legend:
[1] = tested on: CTG-0838; experiment: Champions TumorGraft NSCLC PDX efficacy, model CTG-0838; type: in vivo, Mus musculus
Method: (§1) Mice were implanted subcutaneously into the left flank with tumor fragments from one of the various models. After tumors grew to an average of 150-300 mm^3, mice were treated by IV administration Q7Dx4 (n=2) with vehicle or 3 mg/kg of BT5528. Effects on tumor growth were evaluated by measuring percent tumor growth inhibition (% TGI), and the number of complete responders (CR), partial responders (PR), and tumor-free survivors (TFS). Tolerability was assessed by body weight loss, lethality, and clinical signs of adverse treatment-related side effects. Tumor volumes and body weights were measured twice a week.
(§2) Dosing solutions of BT5528 […] were pre-formulated. These dosing solutions were stored at −80° C. in the dark. On each day of dosing, a frozen aliquot of each test agent was thawed, stored at 2-8° C. and used for dosing.
(§3) The animals used in this study are described below: • Species: Mus musculus • Strain: Athymic Nude-Foxn1^nu (immune-compromised) • Source: Envigo (Indianapolis, Ind., USA) • Number of animals per group: 2 • Age and sex: At least 6-8 weeks of age at start of dosing, female • Weight: At least 18 grams at start of dosing • Acclimation period: 3 days
(§4) Stock mice were implanted with tumor cells from Champions TumorGraft® models CTG-0160, CTG-0170, CTG-0178, CTG-0192, CTG-0363, CTG-0808, CTG-0838, CTG-0848, CTG-1212, CTG-1502, CTG-1535, CTG-2011, CTG-2393, CTG-2539 or CTG-2540. After the tumors reached 1000-1500 mm^3, they were harvested and the tumor fragments (approximately 5×5×5 mm^3) were implanted SC in the left flank of the female study mice. Each animal was implanted with a specific passage lot and documented. Tumor growth was monitored twice a week using digital calipers and the tumor volume (TV) was calculated using the formula (0.52×[length×width^2]). When the TV reached an average volume of 150-300 mm^3, animals were matched by tumor size and assigned into Vehicle Control and treatment groups (n=2/group) and dosing was initiated on Day 0. After the initiation of dosing on Day 0, animals were weighed twice per week using a digital scale and TV was measured twice per week and also on the final day of study. The study was completed when the mean tumor volume of Vehicle Control reached 1500 mm^3 or up to Day 60, whichever occurred first.
(§5) Beginning on Day 0, animals were observed daily and weighed twice weekly using a digital scale; data including individual and mean gram weights, mean percent weight change versus Day 0 (% vD0) were recorded for each group and % vD0 plotted at study completion. […] Treatment resulting in a mean % vD0>20% and/or >10% mortality was considered above the maximum tolerated dose. Maximum mean % vD0 (weight nadir) for each treatment group was reported at study completion.
(§6) Inhibition of tumor growth was determined by calculating the percent TGI (100%×[1−(final MTV−initial MTV of a treated group)/(final MTV−initial MTV of the control group)]). Treatment started on Day 0.
(§7) Additional endpoints used to evaluate efficacy were: the number of complete responders (CR), partial responders (PR), and tumor-free survivors (TFS). PRs were considered exclusive of CRs, as were TFS.
(§8) Statistical analyses of anti-tumor efficacy were performed using one-way ANOVA followed by Dunnett's multiple comparisons test (GraphPad Prism version 8.2.0). Significant p-values=<0.05.
Animals were dosed according to the schedule on Table 7-1. The study was terminated on Day 27.

[2] = tested on: CTG-1502; experiment: Champions TumorGraft NSCLC PDX efficacy, model CTG-1502; type: in vivo, Mus musculus
Method: as §1, §2, §3, §4, §5, §6, §7, §8
Animals were dosed according to the schedule on Table 7-1. The Vehicle Control reached endpoint on Day 17 and the study was terminated on Day 28.

[3] = CTG-0838, 3 mg/kg IV Q7Dx4, Day 0-27
[4] = CTG-1502, 3 mg/kg IV Q7Dx4, Day 0-28

With `CC[C@H](C)[C@@H]([C@@H](CC(=O)N1CCC[C@H]1[C@H](OC)[C@@H](C)C(=O)N[C@H](C)[C@@H](O)c1ccccc1)OC)N(C)C(=O)[C@@H](NC(=O)[C@H](C(C)C)N(C)C(=O)OCc1ccc(NC(=O)[C@H](CCCNC(N)=O)NC(=O)[C@@H](NC(=O)CCCC(=O)ON2C(=O)CCC2=O)C(C)C)cc1)C(C)C` [BT5528] (X1-V[Cit][PABC][NMeV]V[Dil][Dolaproine]-X2) the “mean body weight loss” value ([1]; 3 mg/kg IV Q7Dx4) was “no mean body weight loss”, the “MTV (mean tumor volume)” value ([1]; 3 mg/kg IV Q7Dx4, Day 27) was 269±128 mm^3 and the TGI ([1]; 3 mg/kg IV Q7Dx4, Day 27) was 97%. For the same compound, the “# CR (complete responders)” value [1, 3] was 0/0/0, the “# PR (partial responders)” value [1, 3] was 0/0/0 and the “# TFS (tumor-free survivors)” value [1, 3] was 0/0/0. For the same compound, the “% TGI” value ([1]; CTG-0838, 3 mg/kg IV Q7Dx4, Day 27) was 97%, the “Day 27 Tumor Volume Mean TV ± SEM” value ([1]; CTG-0838, BT5528 3 mg/kg IV Q7Dx4, Day 27, n=2) was 269 ± 128 mm^3 and the “MTV (mean tumor volume)” value ([2]; 3 mg/kg IV Q7Dx4, Day 17) was 976±229 mm^3. For the same compound, the TGI ([2]; 3 mg/kg IV Q7Dx4, Day 17) was 48%, the “# CR (complete responders)” value [2, 4] was 0/0/0 and the “# PR (partial responders)” value [2, 4] was 0/0/0. For the same compound, the “# TFS (tumor-free survivors)” value [2, 4] was 0/0/0, the “% TGI” value ([2]; CTG-1502, 3 mg/kg IV Q7Dx4, Day 17) was 48% and the “Day 17 Tumor Volume Mean TV ± SEM” value ([2]; CTG-1502, BT5528 3 mg/kg IV Q7Dx4, Day 17, n=2) was 976 ± 229 mm^3.
